Patent publication US20230331685A1, “HERBICIDAL COMPOUNDS AND METHODS OF USE THEREOF” (AG Plenus Ltd, priority 2020, published 2023)

Legend:
Type in all cases: in vivo
Poa annua = assay: LTP post-emergence greenhouse test; conditions: Dosage 2000 g/ha
Chenopodium album = assay: LTP post-emergence greenhouse test; conditions: Dosage 2000 g/ha
Stellaria media = assay: LTP post-emergence greenhouse test; conditions: Dosage 2000 g/ha
Arabidopsis thaliana [1] = assay: LTP post-emergence greenhouse test; conditions: Dosage 2000 g/ha
Galium aparine = assay: LTP post-emergence greenhouse test; conditions: Dosage 2000 g/ha
Lolium perenne = assay: LTP post-emergence greenhouse test; conditions: Dosage 2000 g/ha
Abutilon theophrasti = assay: LTP post-emergence greenhouse test; conditions: Dosage 2000 g/ha
Lolium multiflorum = assay: LTP post-emergence greenhouse test; conditions: Dosage 2000 g/ha
Arabidopsis thaliana [2] = assay: HTPS pre-emergence application on dicot model plant
Experimental: The plates were placed in a controlled greenhouse in a random order inside a bath which allows flooding irrigation with tap water supplemented with a fertilizer. Applied compounds were dissolved into a final solution of 50% acetone, 49.9% DDW, 0.1% tween-20. A 96 well plate was used as a stock plate for preparing application solutions for 8 repeats. Each row contained different concentrations per chemical. Maximal concentration for application was 1.5 Kg/Ha and dilution factor is 2.5. Chemical application was performed one day after thinning out in a chemical hood. […] applied on first two true leaves in each well using 12 channel pipettes. Data collection: RGB (red, green, blue) data for green area per well was documented using camera. Data is collected at a few time points during the experiment: one day after thinning and before chemical application, two-, six- or nine-days post application. During the last two documentations, visual phenotyping was performed. Data analysis: Given RGB results and visual phenotype scores, a student t-test conducted to compare between treatment and control performance for continuous data (RGB) and Fisher exact test to analyze the non-continuous data (phenotypic scores). Dose-Response curves are generated for each treatment to infer ED50 and max. inhibition parameters, using treatment's log concentration range as the […] and normalized green area. […] Plate imaging performed at 11 and 18 DAA. RGB data for green area per well was documented and used to extract % inhibition. Dose-Response curves were built for each treatment to infer EC50, EC75 and EC90 parameters, using treatment's log concentration range as the independent variable and normalized green area as the dependent variable. Treatments were compared to controls performance given RGB results and using student's t-test (p-val≤0.05). Compounds 104-154 were applied in either or both pre- and post-emergence mode to either or both monocot and dicot model plants, following the methods described above. The compounds were applied as a gradient of concentrations as listed above, from which the ED50 was calculated.

Eragrostis tef = assay: LTP post-emergence greenhouse test; conditions: Dosage 2000 g/ha
Sinapis alba = assay: LTP post-emergence greenhouse test; conditions: Dosage 2000 g/ha
Conyza canadensis = assay: LTP post-emergence greenhouse test; conditions: Dosage 2000 g/ha
Matricaria chamomilla = assay: LTP post-emergence greenhouse test; conditions: Dosage 2000 g/ha
Amaranthus tuberculatus = assay: LTP post-emergence greenhouse test; conditions: Dosage 2000 g/ha
Experimental: A basic panel of eight weed species (Table 3) sowed in 4×4×7 cm plastic pots containing a garden mix (klasmann). Each specie was sowed in a separate pot. In each pot, 10-15 seeds were sowed according to the specie viability. Timing of application determined at a 1-2 true leaf stage. The plants grew for 30 days in a controlled greenhouse (26±2° C. day, 20±2° C. night). Hood irrigation (tap water+Shefer 5:3:8 8 mM) was given at a 50% water content by weight. Two days before application, the tested plants thinned down to three plants per pot. Compounds were soluble in water (DDW), and commercial herbicide control was soluble in formulation B (Table 4). Before application, 1% (v/v) crop oil and 0.02% (v/v) surfactant (Tergitol™ 15-S-7) were added to the solution. […] Plants were evaluated at 3 time points (4, 8, 12 days after application (DAA)). At each time point, visual phenotyping was recorded using a scale of 0-6 (0: no visible effect, 6: maximum effect). […]
Post-emergence advanced wide panel experiment included 24 weed species (Table 5). […] Visual phenotyping was recorded at 4, 11, 17 and 20 DAA using a scale of 0-6 (0: no visible effect, 6: maximum effect). […] Statistical analysis for visual phenotyping determined by a median value of ≥3.5 and Fisher test (pval≤0.05). Statistical analysis for dry weight determined by % inhibition ≥50 and T test (pval≤0.05), as well as Wilcox test (pval≤0.05).

Amaranthus palmeri = assay: LTP post-emergence greenhouse test; conditions: Dosage 2000 g/ha
Digitaria sanguinalis = assay: LTP post-emergence greenhouse test; conditions: Dosage 2000 g/ha
Echinochloa colon = assay: LTP post-emergence greenhouse test; conditions: Dosage 2000 g/ha
Solanum nigrum = assay: LTP post-emergence greenhouse test; conditions: Dosage 2000 g/ha
Phalaris minor = assay: LTP post-emergence greenhouse test; conditions: Dosage 2000 g/ha
Ambrosia artemisiifolia = assay: LTP post-emergence greenhouse test; conditions: Dosage 2000 g/ha

C[C@@H](O)[C@@H](N)CCCCC(=O)O [Compound 104, (6S,7R)-6-amino-7-hydroxyoctanoic acid]
Herbicidal activity (In-planta), LTP-Post emergence, Poa annua (Poa annua): 90 | Herbicidal activity (In-planta), LTP-Post emergence, Chenopodium album (Chenopodium album): 90 | Herbicidal activity (In-planta), LTP-Post emergence, Stellaria media (Stellaria media): 95 | Herbicidal activity (In-planta), LTP-Post emergence, Arabidopsis thaliana (Arabidopsis thaliana [1]): 60 | Herbicidal activity (In-planta), LTP-Post emergence, Galium aparine (Galium aparine): 70 | Herbicidal activity (In-planta), LTP-Post emergence, Lolium perenne (Lolium perenne): 85-90 | Herbicidal activity (In-planta), LTP-Post emergence, Abutilon theophrasti (Abutilon theophrasti): 80 | Herbicidal activity (In-planta), LTP-Post emergence, Lolium multiflorum (Lolium multiflorum): 80-90 | ED50 (g/ha) (Arabidopsis thaliana [2]; dose-response of normalized green area): 6 g/ha | Max Inhibition (%) (Arabidopsis thaliana [2]; green area (RGB)): 94% | Herbicidal activity (In-planta), LTP-Post emergence, Eragrostis tef (Eragrostis tef): 60-100 | Herbicidal activity (In-planta), LTP-Post emergence, Sinapis alba (Sinapis alba): 60 | Herbicidal activity (In-planta), LTP-Post emergence, Conyza canadensis (Conyza canadensis): 95 | Herbicidal activity (In-planta), LTP-Post emergence, Matricaria chamomilla (Matricaria chamomilla): 70-80 | Herbicidal activity (In-planta), LTP-Post emergence, Amaranthus tuberculatus (Amaranthus tuberculatus): 80 | Herbicidal activity (In-planta), LTP-Post emergence, Amaranthus palmeri (Amaranthus palmeri): 90 | Herbicidal activity (In-planta), LTP-Post emergence, Digitaria sanguinalis (Digitaria sanguinalis): 95 | Herbicidal activity (In-planta), LTP-Post emergence, Echinochloa colon (Echinochloa colon): 95 | Herbicidal activity (In-planta), LTP-Post emergence, Solanum nigrum (Solanum nigrum): 80-90 | Herbicidal activity (In-planta), LTP-Post emergence, Phalaris minor (Phalaris minor): 20-30 | Herbicidal activity (In-planta), LTP-Post emergence, Ambrosia artemisiifolia (Ambrosia artemisiifolia): 70-80
